{"source": "patent US5278181A", "about": "“Soluble alkyl[5-[amino (phenyl)methyl]-1H-benzimidazol-2-yl] carbamate anthelmintics” (priority 1992, dated 1994)", "key": {"[1]": {"tested_on": "Brugia pahangi", "assay": "Antifilarial dual infection screen in jirds: adult B. pahangi burden", "type": "in vivo, in Mongolian jirds", "from_the_text": "(§1) Dual infections of the filarial worms Brugia pahangi and Acanthocheilonema viteae in jirds are used routinely for antifilarial screening [McCall, J. W., McTier, T. L., and Rowan, S. J., \"In vivo models for evaluating potential antifilarial agents\", Onchocerciasis/Filariasis (Proceedings of a Symposium sponsored by the World Health Organization), Kalamazoo, Mich., Apr. 8-10, 23-24 (1986)].\nFor this dual infection screen, male Mongolian jirds weighing 50-60 g are infected SC with 10 (5 male and 5 female) adult A. viteae, transplanted under sodium pentobarbital anesthesia (48 mg/kg) from donor hamsters infected SC 8 weeks earlier. Two weeks later, 20 (10 male and 10 female) adult B. pahangi, taken from donor jirds infected IP 8 weeks earlier, are transplanted into the peritoneal cavity of each jird under sodium pentobarbital anesthesia. After an additional week, when the jirds have acceptable levels of microfilaremia, they are randomly allocated to treatment groups of 3 animals each and a nontreated group of 4-6 animals. Microfilaremia is determined on days 0 (just prior to the first dose), 4 and 56 post-treatment. Unless indicated otherwise, compounds are suspended in hydroxyethylcellulose (0.5%) - Tween 80 (0.1%) and administered SC at 100 mg/kg/day for 5 consecutive days. All jirds are killed on day 56 post-treatment to determine the effects of drugs on adults of A. viteae and B. pahangi. Live worms are identified as to species, noted as to sex, and counted. The number of dead and/or encapsulated worms is also recorded. A reduction of ≥80% in microfilaremia or ≥50% in adult worm burden (either species) compared with pre-treatment microfilaremia or non-treated control worm burden, respectively, is considered to be significant. For secondary testing with this dual infection screen, groups of 7 animals each are used. For oral dosing, drugs are dissolved or suspended in hydroxyethylcellulose - Tween 80 and administered by gavage."}, "[2]": {"tested_on": "Brugia pahangi", "assay": "Antifilarial effect in beagle dogs infected with Brugia pahangi", "type": "in vivo", "settings": "for Dogs cured/Treated / Percent reduction Macrofilariae / Percent reduction Microfilariae: PO", "from_the_text": "The infective larvae of B. pahangi were produced and collected as described by McCall [J. Georgia Entomol. Soc. 16:283-293, (1981)]. The dogs were given 100 L3 of B. pahangi by subcutaneous injection (SC) into the dorsum of each hind paw or 200 L3 in one hind paw (i.e., a total inoculum of 200 L3 per dog).\nThe dogs were randomly allocated to treatment groups containing 4 dogs. The dogs were divided by sex and ranked by declining baseline microfilarial counts (average count based on the 5 bleedings made before the day of treatment). Those dogs which were amicrofilaremic or had very few microfilariae were excluded from the trial. Of the remaining dogs, those with the highest baseline microfilaremias were assigned to seven-dog replicates. The sex of the dogs within three of the replicates was the same, while the fourth replicate contained dogs of both sexes. The dogs of a given sex with the highest levels of microfilaremia were placed in the same replicate. The next set of dogs of that sex with the next highest levels of microfilaremia was assigned to the next replicate, and so on until all of the replicates were filled. The dogs within each complete replicate were assigned to test groups using a table of random numbers [Ostle and Mensing, Statistics in Research, Third Edition, Iowa State University Press, Ames, Iowa, pp. 560-563, (1975)]. The test groups were likewise assigned to either control or treatment groups using the table of random numbers.\nThe first day of treatment, day 0, was approximately 144 days after infection. Drugs were administered orally as a 10% suspension in HEC-Tween 80 or in soft gelatin capsules. Drugs were administered intramuscularly or subcutaneously as a 10% suspension in peanut oil or in HEC-Tween 80. Groups of four dogs served in sham-treated controls in each experiment. All of the treatments were given by IM injection in the dorsal lumbar muscles.\nAll dogs were observed frequently during each day of treatment and daily throughout the remainder of the study for any signs of reactions. In addition, the hair was shaved at the injection sites to facilitate the observation of possible tissue irritation resulting from treatment.\nBlood was collected from each dog on days 51, 43, 27, 19, and 5 before treatment to determine baseline microfilaremias and allocate the dogs to treatment groups. Blood was then collected from all dogs on the day before treatment on day -1, on days 7, 10, 14, 21, 28, 35, 42, 49, and 56 days after treatment. All bleedings were done at approximately the same time of day (11:00-12:00 E.S.T.). Two 20-μl blood films were prepared from each sample and stained with giemsa. Microfilarial counts were made from the 2 blood films.\nThe dogs were euthanized for necropsy either two or six months after the first day of treatment. Just prior to euthanasia, the dogs were given a subcutaneous injection (SC) of a two percent solution of Evans blue into the dorsum of both hind paws in order to help delineate the lymphatic vessels. This was followed at least 30 minutes later with a lethal dose of Fatal-Plus® (Vortech Pharmaceuticals, Dearborn, Mich.). A limited necropsy was performed on each dog with examination of the afferent and efferent lymphatics of both hindlimbs and the popliteal, inguinal, internal and external iliac, and lumbar lymph nodes. Any live or dead worms seen were removed. These vessels and lymph nodes were removed, teased, and soaked overnight in normal saline to allow any worms to migrate out of the tissues. The condition of the worms, their sex and number, and the location from which they were recovered were noted.\nEffectiveness against the adult parasites was determined as follows: [formula] Effectiveness against microfilariae for a given day after treatment was determined as follows: [formula]\nThe adult B. pahangi counts and the microfilarial counts were compared using a one way analysis of variance (ANOVA). […]"}, "[3]": {"tested_on": "B. pahangi and A. viteae", "assay": "Antifilarial activity in jirds, dual infection, summary in words", "type": "in vivo", "settings": "both oral and parenteral routes", "from_the_text": "as §1\nFor this dual infection screen, male Mongolian jirds weighing 50-60 g are infected SC with 10 (5 male and 5 female) adult A. viteae, transplanted under sodium pentobarbital anesthesia (48 mg/kg) from donor hamsters infected SC 8 weeks earlier. Two weeks later, 20 (10 male and 10 female) adult B. pahangi, taken from donor jirds infected IP 8 weeks earlier, are transplanted into the peritoneal cavity of each jird under sodium pentobarbital anesthesia. After an additional week, when the jirds have acceptable levels of microfilaremia, they are randomly allocated to treatment groups of 3 animals each and a nontreated group of 4-6 animals. Microfilaremia is determined on days 0 (just prior to the first dose), 4 and 56 post-treatment. […] Live worms are identified as to species, noted as to sex, and counted. The number of dead and/or encapsulated worms is also recorded. […]"}, "[4]": {"assay": "physchem", "settings": "water"}, "[5]": {"settings": "50(34 free base) mg/kg/day bid × 5, gelatin capsules, not significantly different from control"}, "[6]": {"settings": "100(78 free base) mg/kg/day bid × 5, gelatin capsules"}, "[7]": {"settings": "200(155 free base) mg/kg/day bid × 5, HEC-Tween 80"}, "[8]": {"settings": "200(155 free base) mg/kg/day bid × 5, gelatin capsules"}}, "note": "“And” between values parts separate entries of the source, which are not always exact repeats. Equal values may be shown once."}
{"smiles": "COC(=O)Nc1nc2cc(C(N)c3ccc(F)cc3)ccc2[nH]1.Cl.Cl", "note": "(racemic) [Example 2, Methyl (±)-[5-[Amino(4Fluorophenyl)Methyl]-1H-Benzimidazol-2-yl]Carbamate Dihy drochloride Salt]", "values": [{"measurement": "% Macrofilarial reduction, B. pahangi", "setting": "[1]; 1.56 mg/kg/day × 5 days, SC, day 56", "result": 22, "unit": "%"}, {"measurement": "% Macrofilarial reduction, B. pahangi", "setting": "[1]; 3.13 mg/kg/day × 5 days, SC, day 56, 3.13 mg/kg/day", "result": "84% and 88%"}, {"measurement": "% Macrofilarial reduction, B. pahangi", "setting": "[1]; 6.25 mg/kg/day × 5 days, SC, day 56, 6.25 mg/kg/day", "result": "96% and 98%"}, {"measurement": "% Macrofilarial reduction, B. pahangi", "setting": "[1]; 12.5 mg/kg/day × 1 day, SC, day 56", "result": 72, "unit": "%"}, {"measurement": "% Macrofilarial reduction, B. pahangi", "setting": "[1]; 12.5 mg/kg/day × 5 days, SC, day 56", "result": 100, "unit": "%"}, {"measurement": "% Macrofilarial reduction, B. pahangi", "setting": "[1]; 25 mg/kg/day × 1 day, SC, day 56", "result": 100, "unit": "%"}, {"measurement": "% Macrofilarial reduction, B. pahangi", "setting": "[1]; 25 mg/kg/day × 5 days, SC, day 56", "result": 100, "unit": "%"}, {"measurement": "% Macrofilarial reduction, B. pahangi", "setting": "[1]; 75 mg/kg/day × 5 days, oral, day 56", "result": 30, "unit": "%"}, {"measurement": "% Macrofilarial reduction, B. pahangi", "setting": "[1]; 100 mg/kg/day × 5 days, oral, day 56", "result": 32, "unit": "%"}, {"measurement": "Dogs cured/Treated", "setting": "[2]; 50(34 free base) mg/kg/day bid × 5, gelatin capsules", "result": "0/4"}, {"measurement": "Percent reduction Macrofilariae", "setting": "[2]; [5]", "result": 71, "unit": "%"}, {"measurement": "Percent reduction Microfilariae", "setting": "[2]; [5]", "result": 89, "unit": "%"}, {"measurement": "Dogs cured/Treated", "setting": "[2]; [6]", "result": "0/4"}, {"measurement": "Percent reduction Microfilariae", "setting": "[2]; [6]", "result": 86, "unit": "%"}, {"measurement": "Percent reduction Macrofilariae", "setting": "[2]; 100(78 free base) mg/kg/day bid × 5, gelatin capsules, not significantly different from control", "result": 23, "unit": "%"}, {"measurement": "Percent reduction Macrofilariae", "setting": "[2]; 200(155 free base) mg/kg/day bid × 1, HEC-Tween 80", "result": 97, "unit": "%"}, {"measurement": "Dogs cured/Treated", "setting": "[2]; 200(155 free base) mg/kg/day bid × 1, HEC-Tween 80, necropsied 6 months", "result": "1/3"}, {"measurement": "Percent reduction Microfilariae", "setting": "[2]; 200(155 free base) mg/kg/day bid × 1, HEC-Tween 80, not significantly different from control", "result": 77, "unit": "%"}, {"measurement": "Percent reduction Macrofilariae", "setting": "[2]; 200(155 free base) mg/kg/day bid × 3, HEC-Tween 80", "result": 90, "unit": "%"}, {"measurement": "Dogs cured/Treated", "setting": "[2]; 200(155 free base) mg/kg/day bid × 3, HEC-Tween 80, necropsied 6 months", "result": "0/3"}, {"measurement": "Percent reduction Microfilariae", "setting": "[2]; 200(155 free base) mg/kg/day bid × 3, HEC-Tween 80, not significantly different from control", "result": 71, "unit": "%"}, {"measurement": "Percent reduction Macrofilariae", "setting": "[2]; [7]", "result": 100, "unit": "%"}, {"measurement": "Percent reduction Microfilariae", "setting": "[2]; [7]", "result": 100, "unit": "%"}, {"measurement": "Dogs cured/Treated", "setting": "[2]; 200(155 free base) mg/kg/day bid × 5, HEC-Tween 80, necropsied 6 months", "result": "3/3"}, {"measurement": "Percent reduction Macrofilariae", "setting": "[2]; [8]", "result": 99, "unit": "%"}, {"measurement": "Percent reduction Microfilariae", "setting": "[2]; [8]", "result": 100, "unit": "%"}, {"measurement": "Dogs cured/Treated", "setting": "[2]; 200(155 free base) mg/kg/day bid × 5, gelatin capsules, necropsied 6 months", "result": "5/6"}, {"measurement": "Percent reduction Macrofilariae", "setting": "[2]; 200(155 free base) mg/kg/day × 1, HEC-Tween 80", "result": 79, "unit": "%"}, {"measurement": "Dogs cured/Treated", "setting": "[2]; 200(155 free base) mg/kg/day × 1, HEC-Tween 80, necropsied 6 months", "result": "1/3"}, {"measurement": "Percent reduction Microfilariae", "setting": "[2]; 200(155 free base) mg/kg/day × 1, HEC-Tween 80, not significantly different from control", "result": 74, "unit": "%"}, {"measurement": "Percent reduction Macrofilariae", "setting": "[2]; 200(155 free base) mg/kg/day × 3, HEC-Tween 80", "result": 97, "unit": "%"}, {"measurement": "Dogs cured/Treated", "setting": "[2]; 200(155 free base) mg/kg/day × 3, HEC-Tween 80, necropsied 6 months", "result": "1/3"}, {"measurement": "Percent reduction Microfilariae", "setting": "[2]; 200(155 free base) mg/kg/day × 3, HEC-Tween 80, not significantly different from control", "result": 78, "unit": "%"}, {"measurement": "cure of B. pahangi infections", "setting": "[2]; oral, 200 mg/kg/day (155 base equivalent) for 1, 3 or 5 days", "result": "cured dogs of B. pahangi infections"}, {"measurement": "antifilarial activity in jirds", "setting": "[3]", "result": "outstanding antifilarial activity"}, {"measurement": "solubility", "setting": "[4]", "result": "> 50", "unit": "mg/mL"}]}
